One experiment deals with PD-1/PD-L1 (Homo sapiens, UniProt Q9NZQ7). The experiment in a line: PD-1/PD-L1 biochemical protein-protein interaction assay (ALPHA). The format is binding. The following applies: 0.3 nM His tagged PD-L1, 2.5 nM biotinylated Fc-PD-1, 60 minutes at 25° C., read-out: IC50 PD-L1-PD-1 Alpha IC50-mono PD-L1-fcP-D1. Summed up: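 ALPHA bead proximity assay of extracellular domains: 0.3 nM His-PD-L1 with 2.5 nM biotinylated Fc-PD-1 in 25 mM Hepes pH 7.4, 150 mM NaCl, 3.4 mM EDTA, 0.005% Tween 20, 0.01% BSA, 60 min at 25 °C. Anti-His acceptor and streptavidin donor beads added; IC50 from four-parameter fit of signal loss.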
Chain of PD-1/PD-L1 (Q9NZQ7 19-238 limits assumed): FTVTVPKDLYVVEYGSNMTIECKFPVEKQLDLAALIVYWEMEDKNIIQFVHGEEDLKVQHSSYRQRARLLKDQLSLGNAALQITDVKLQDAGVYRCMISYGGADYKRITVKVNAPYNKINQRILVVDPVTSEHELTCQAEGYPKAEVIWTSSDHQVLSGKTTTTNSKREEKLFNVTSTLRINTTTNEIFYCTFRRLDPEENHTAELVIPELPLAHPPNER

For another experiment, the target named is T1, PD-1/PD-L1 interaction (Homo sapiens, UniProt Q9NZQ7).
T1 construct: expressed in transfected cells; host or cells: CHO cells (aAPC-PD-L1) co-cultured with Jurkat cells overexpressing PD-1 and an NFAT-luciferase reporter
T1 sequence (Q9NZQ7 19-290): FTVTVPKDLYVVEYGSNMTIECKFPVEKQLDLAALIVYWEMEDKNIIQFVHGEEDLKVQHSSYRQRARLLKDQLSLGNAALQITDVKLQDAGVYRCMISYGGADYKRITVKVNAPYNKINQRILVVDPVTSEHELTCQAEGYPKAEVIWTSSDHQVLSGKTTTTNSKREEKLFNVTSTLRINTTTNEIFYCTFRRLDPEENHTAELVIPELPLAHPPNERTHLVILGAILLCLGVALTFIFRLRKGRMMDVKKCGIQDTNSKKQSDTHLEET
The experiment is described as follows: PD-1/PD-L1 NFAT reporter co-culture assay. Format: cell-based. The following applies: Jurkat PD-1 NFAT-luciferase cells co-cultured with aAPC-PD-L1 CHO cells, 6 hrs at 37° C.; read-out: EC50 NFAT Luciferase. Summed up:
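Jurkat cells overexpressing PD-1 with NFAT-luciferase mixed with compounds and plated onto CHO aAPCs expressing anti-CD3 and PD-L1, RPMI with 2% FBS. Co-culture 6 h at 37 °C; luminescence read with ONE-Glo. EC50 from four-parameter fit.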

The target of another experiment is T2, PD-L1 (Homo sapiens, UniProt Q9NZQ7).
T2 construct: determine if they can specifically dimerize the extracellular domains of PD-L1
T2 sequence (Q9NZQ7 19-238 limits assumed): as the sequence (Q9NZQ7 19-238 limits assumed) above
T2 sequence (Q9NZQ7 19-238 limits assumed): as above
The experiment in a line: PD-L1/PD-L1 dimerization biochemical protein-protein interaction assay (ALPHA). The format is binding. To be noted: compound-induced PD-L1 dimerization, head prints '1 nM' (0.5 nM His-tagged PD-L1 and 0.5 nM FLAG-tagged PD-L1), read-out: AC50 PDL1 Dimer Alpha 1 nM. Summed up: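 ALPHA proximity assay of compound-induced dimerization of 0.5 nM His-tagged and 0.5 nM FLAG-tagged PD-L1 extracellular domains in Hepes pH 7.4 buffer, 2 h at 25 °C. Anti-His acceptor then anti-FLAG donor beads, 60 min each; AC50 from four-parameter fit.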

Broadly, the IC50 is the midpoint of a concentration-inhibition curve. One may read the EC50 as the concentration that produces a half-maximal response. As usually defined, the AC50 is the concentration at which the activity in the assay is half-maximal. `Cc1c(COc2cc(OCc3cncc(C#N)c3)c(CN[C@@](C)(CO)C(=O)O)cc2Cl)cccc1-c1cccc(-c2ccc(OCCN[C@@](C)(CO)C(=O)O)cc2)c1C` [Example 313, (S)-2-((4-((4″-(2-(((S)-2-carboxy-1-hydroxypropan-2-yl)amino)ethoxy)-2,2′-dimethyl-[1,1′:3′,1″-terphenyl]-3-yl)methoxy)-5-chloro-2-((5-cyanopyridin-3-yl)methoxy)benzyl)amino)-3-hydroxy-2-methylpropanoic acid]: the half-inhibitory concentration (IC50) at PD-1/PD-L1 was found to be 0.051 nM. Moreover, the EC50 on PD-1/PD-L1 interaction turned out to be 152 nM. On PD-L1, the half-maximal activity concentration (AC50) was 91.3 nM.
The like results for `COc1cc(-c2cccc(-c3cccc(-c4ccc(CNC[C@@H](O)CC(=O)O)c(OC)c4)c3C)c2C)ccc1CNC[C@@H](O)CC(=O)O` [Example 317, (3S,3′S)-4,4′-(((3,3′″-dimethoxy-2′,2″-dimethyl-[1,1′:3′,1″:3″,1′″-quaterphenyl]-4,4′″-diyl)bis(methylene))bis(azanediyl))bis(3-hydroxybutanoic acid)] were, in that order, 0.577 nM, 1100 nM and 1180 nM.
On to `Cc1c(COc2cc(OCc3cncc(C#N)c3)c(CN[C@@](C)(CO)C(=O)O)cc2Cl)cccc1-c1cccc(-c2ccc(CNCC3CCC(=O)N3)cc2)c1C` (stereo partly drawn) [Example 323, (2S)-2-((5-chloro-2-((5-cyanopyridin-3-yl)methoxy)-4-((2,2′-dimethyl-4″-((((5-oxopyrrolidin-2-yl)methyl)amino)methyl)-[1,1′:3′,1″-terphenyl]-3-yl)methoxy)benzyl)amino)-3-hydroxy-2-methylpropanoic acid], for which, on PD-1/PD-L1, the IC50 is 0.074 nM. The EC50 on PD-1/PD-L1 interaction was 168 nM. Besides, the concentration at half-maximal activity (AC50) at PD-L1 is 67.1 nM.
For the molecule `Cc1c(-c2ccc(CN3CC[C@@H](O)C3)cc2)cccc1-c1cccc(-c2ccc(CNC[C@@H](O)CC(=O)O)c(OCCCC#N)c2)c1C` [Example 324, (S)-4-(((3-(3-cyanopropoxy)-4′″-(((R)-3-hydroxypyrrolidin-1-yl)methyl)-2′,2″-dimethyl-[1,1′:3′,1″:3″,1′″-quaterphenyl]-4-yl)methyl)amino)-3-hydroxybutanoic acid], on PD-1/PD-L1, the IC50 turned out to be 0.505 nM. The half-maximal effective concentration (EC50) on PD-1/PD-L1 interaction was found to be 894 nM. For the same molecule, on PD-L1, the AC50 was found to be 1020 nM.
For `Cc1c(-c2ccc(CN3CC[C@@H](O)C3)cc2)cccc1-c1cccc(-c2ccc(CNC[C@@H](O)CC(=O)O)c(OC(F)(F)F)c2)c1C` [Example 325, (S)-3-hydroxy-4-(((4′″-(((R)-3-hydroxypyrrolidin-1-yl)methyl)-2′,2″-dimethyl-3-(trifluoromethoxy)-[1,1′:3′,1″:3″,1′″-quaterphenyl]-4-yl)methyl)amino)butanoic acid], in that order: 1.38 nM, 2580 nM and 633 nM.
The like results for `Cc1c(COc2cc(OCc3cncc(C#N)c3)c(CNC[C@@H](O)CC(=O)O)cc2Cl)cccc1-c1cccc(-c2ccc(CNCc3cncc(C#N)c3)cc2)c1C` [Example 326, (S)-4-((5-chloro-2-((5-cyanopyridin-3-yl)methoxy)-4-((4″-((((5-cyanopyridin-3-yl)methyl)amino)methyl)-2,2′-dimethyl-[1,1′:3′,1″-terphenyl]-3-yl)methoxy)benzyl)amino)-3-hydroxybutanoic acid] were, in that order, 1.15 nM, 439 nM and 1210 nM.
The like results for `Cc1c(COc2nc(OC[C@@H]3CCC(=O)N3)c(CNC[C@@H](O)CC(=O)O)cc2Br)cccc1-c1cccc(COc2nc(OC[C@@H]3CCC(=O)N3)c(CNC[C@@H](O)CC(=O)O)cc2Br)c1C` [Example 328, (3S,3′S)-4,4′-((((((2,2′-dimethyl-[1,1′-biphenyl]-3,3′-diyl)bis(methylene))bis(oxy))bis(5-bromo-2-(((S)-5-oxopyrrolidin-2-yl)methoxy)pyridine-6,3-diyl))bis(methylene))bis(azanediyl))bis(3-hydroxybutanoic acid)] were, in that order, 0.142 nM, 146 nM and 241 nM.

The values above are taken from patent publication US12590062B2, “PD-1/PD-L1 inhibitors” (Gilead Sciences, Inc., priority 2017, dated 2026).
